“And” between values parts separate entries of the source, which are not always exact repeats. Identical values can stand only once. Inconclusive results and toxic doses are left out. Cut-off read from the data, not from the text of the source: active = T/C of 150% or more; inactive = T/C below 125%.
Test system: L1210 leukemia ip in BDF1 mice, survival T/C
Assay: NCI In Vivo Anticancer Drug Screen. Data for tumor model L1210 Leukemia (intraperitoneal) in B6D2F1 (BDF1) mice
Conditions: endpoint: mean survival time, higher = longer survival
Method in brief: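 Mice bearing the transplanted tumor received compound or vehicle. Survival of the treated group was divided by that of the vehicle-treated control group to give the ratio.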

[1] = dose: 100.0 mg/kg/injection, schedule: Q01DX001 (ip), vehicle: carboxymethylcellulose (CMC)
[2] = dose: 200.0 mg/kg/injection, schedule: Q01DX001 (ip), vehicle: carboxymethylcellulose (CMC)
[3] = dose: 400.0 mg/kg/injection, schedule: Q01DX001 (ip), vehicle: carboxymethylcellulose (CMC)
[4] = dose: 100.0 mg/kg/injection, schedule: Q01DX009 (ip), vehicle: Klucel (hydroxypropylcellulose) (HPC)
[5] = dose: 200.0 mg/kg/injection, schedule: Q01DX009 (ip), vehicle: Klucel (hydroxypropylcellulose) (HPC)
[6] = dose: 400.0 mg/kg/injection, schedule: Q01DX009 (ip), vehicle: Klucel (hydroxypropylcellulose) (HPC)
[7] = dose: 100.0 mg/kg/injection, schedule: Q01DX009 (ip), vehicle: saline with Tween-80
[8] = dose: 200.0 mg/kg/injection, schedule: Q01DX009 (ip), vehicle: saline with Tween-80
[9] = dose: 100.0 mg/kg/injection, schedule: Q01DX001 (ip), vehicle: saline
[10] = dose: 200.0 mg/kg/injection, schedule: Q01DX001 (ip), vehicle: saline
[11] = dose: 400.0 mg/kg/injection, schedule: Q01DX001 (ip), vehicle: saline
[12] = dose: 100.0 mg/kg/injection, schedule: Q04DX003 (ip), vehicle: saline
[13] = dose: 200.0 mg/kg/injection, schedule: Q04DX003 (ip), vehicle: saline
[14] = dose: 400.0 mg/kg/injection, schedule: Q04DX003 (ip), vehicle: saline
[15] = dose: 100.0 mg/kg/injection, schedule: Q04DX002 (ip), vehicle: saline with Tween-80
[16] = dose: 200.0 mg/kg/injection, schedule: Q04DX002 (ip), vehicle: saline with Tween-80
[17] = dose: 100.0 mg/kg/injection, schedule: Q04DX003 (ip), vehicle: saline with Tween-80
[18] = dose: 200.0 mg/kg/injection, schedule: Q04DX003 (ip), vehicle: saline with Tween-80
[19] = dose: 400.0 mg/kg/injection, schedule: Q04DX002 (ip), vehicle: saline with Tween-80
[20] = dose: 50.0 mg/kg/injection, schedule: Q01DX009 (ip), vehicle: saline
[21] = dose: 100.0 mg/kg/injection, schedule: Q01DX009 (ip), vehicle: saline

Measured: T/C

O=C1NC(=O)C(CCI)(CCI)C(=O)N1
inactive: [1] 103 % of control | [2] 98 % of control | [3] 109 % of control

Cc1cc(NS(=O)(=O)c2ccc(N=Nc3c(N)nc(N)nc3N)cc2)nc(C)n1
inactive: [1] 103 % of control | [2] 97 % of control | [3] 105 % of control

CCOC(=O)C(CC)(OC(C)=O)C(=O)CBr (stereo not given)
inactive: dose: 75.0 mg/kg/injection, schedule: Q01DX001 (ip), vehicle: acetone 87 % of control

COc1ccc(CCN2C(=O)c3cccc4c([N+](=O)[O-])ccc(c34)C2=O)cc1OC
inactive: [4] 100 % of control | [5] 94 % of control | [6] 93 % of control

COc1ccccc1C(=O)N/N=C/c1ccncc1
inactive: [4] 94 % of control | [5] 94 % of control | [6] 97 % of control

O=S(=O)(c1ccc(N=Nc2ncc[nH]2)cc1)N(CCCl)CCCl
inactive: dose: 50.0 mg/kg/injection, schedule: Q01DX009 (ip), vehicle: saline with Tween-80 90 % of control | [7] 94 % of control | [8] 90 % of control

Cc1cc(Cl)ccc1OCCCC(=O)O
inactive: dose: 50.0 mg/kg/injection, schedule: Q01DX001 (ip), vehicle: saline 102 % of control | [9] 98 % of control | [10] 98 % of control | [11] 104 % of control

CCCCc1ccc(OCCBr)cc1
inactive: dose: 100.0 mg/kg/injection, schedule: Q01DX009 (ip), vehicle: saline sonified 102 % of control | dose: 100.0 mg/kg/injection, schedule: Q04DX003 (ip), vehicle: Klucel (hydroxypropylcellulose) (HPC) 95 % of control | dose: 200.0 mg/kg/injection, schedule: Q01DX009 (ip), vehicle: saline sonified 98 % of control | dose: 200.0 mg/kg/injection, schedule: Q04DX003 (ip), vehicle: Klucel (hydroxypropylcellulose) (HPC) 103 % of control | dose: 400.0 mg/kg/injection, schedule: Q01DX009 (ip), vehicle: saline sonified 95 % of control | dose: 400.0 mg/kg/injection, schedule: Q04DX003 (ip), vehicle: Klucel (hydroxypropylcellulose) (HPC) 101 % of control

O=C(/C=C/C(=O)NCc1ccccc1)NCc1ccccc1
inactive: [12] 100 % of control | [13] 103 % of control | [14] 100 % of control

O=C(c1cc(=O)[nH]c(=O)[nH]1)N(CCO)CCO
inactive: dose: 100.0 mg/kg/injection, schedule: Q01DX Z (ip), vehicle: saline 106 % of control | dose: 200.0 mg/kg/injection, schedule: Q01DX Z (ip), vehicle: saline 93 % of control

CC(CCl)N(CCCl)Cc1cccc(Nc2ncnc3nc[nH]c23)c1 (stereo not given)
inactive: dose: 1.1 mg/kg/injection, schedule: Q01DX015 (ip), vehicle: saline 122 % of control | dose: 1.8 mg/kg/injection, schedule: Q01DX015 (ip), vehicle: saline 112 % of control | dose: 3.0 mg/kg/injection, schedule: Q01DX015 (ip), vehicle: saline 109 % of control | dose: 4.4 mg/kg/injection, schedule: Q01DX001 (ip), vehicle: saline 120 % of control | dose: 5.0 mg/kg/injection, schedule: Q01DX001 (ip), vehicle: saline 121 % of control | dose: 5.0 mg/kg/injection, schedule: Q01DX015 (ip), vehicle: saline 102 % of control | dose: 6.6 mg/kg/injection, schedule: Q01DX001 (ip), vehicle: saline 120 % of control | dose: 20.0 mg/kg/injection, schedule: Q01DX001 (ip), vehicle: saline 117 % of control

c1ccc2c[n+](CC[n+]3ccc4ccccc4c3)ccc2c1
inactive: dose: 75.0 mg/kg/injection, schedule: Q04DX003 (ip), vehicle: saline 98 % of control

O=C(O)c1ccc2c(c1)C(=O)c1ccccc1C2=O
inactive: [15] 105 % of control | [16] 99 % of control

CCOC(=O)CC(CC(=O)OCC)NC(=O)c1ccc(N(C)C(=O)OCc2ccccc2)cc1
inactive: [1] 97 % of control | [2] 100 % of control | [3] 105 % of control

c1ccc2c(c1)OCOc1ccccc1OCO2
inactive: [1] 94 % of control | [2] 92 % of control | [3] 92 % of control

COc1ccc(C=Nc2ccc(O)cc2)cc1
inactive: [9] 102 % of control | [12] 101 % of control | [10] 100 % of control | [13] 108 % of control | [11] 103 % of control | [14] 101 % of control

COc1cc(C(=O)NCc2cccs2)cc(OC)c1OC
inactive: dose: 100.0 mg/kg/injection, schedule: Q04DX002 (ip), vehicle: Klucel (hydroxypropylcellulose) (HPC) 102 % of control | dose: 200.0 mg/kg/injection, schedule: Q04DX002 (ip), vehicle: Klucel (hydroxypropylcellulose) (HPC) 94 % of control | dose: 400.0 mg/kg/injection, schedule: Q04DX002 (ip), vehicle: Klucel (hydroxypropylcellulose) (HPC) 94 % of control

O=C(Nc1ccc(Cl)cc1[N+](=O)[O-])Oc1ccccc1C(=O)Nc1ccccc1
inactive: [7] 92 % of control | [15] 93 % of control and 95 % of control | [17] 97 % of control | [8] 91 % of control | [16] 98 % of control and 88 % of control | [18] 95 % of control | dose: 400.0 mg/kg/injection, schedule: Q01DX009 (ip), vehicle: saline with Tween-80 89 % of control and 92 % of control | [19] 97 % of control and 91 % of control | dose: 400.0 mg/kg/injection, schedule: Q04DX003 (ip), vehicle: saline with Tween-80 93 % of control

O=C1CN(CCN2CC(=O)NC2=S)C(=S)N1
inactive: [15] 95 % of control | [16] 100 % of control

c1ccc(C[N+](Cc2ccccc2)=C2CCCCC2)cc1
inactive: [20] 92 % of control | [21] 100 % of control | [12] 98 % of control | [13] 103 % of control

O=C1CC2CC1C(C(=O)O)C2C(=O)O (stereo not given)
inactive: [9] 98 % of control | [21] 96 % of control | [10] 96 % of control | dose: 200.0 mg/kg/injection, schedule: Q01DX009 (ip), vehicle: saline 96 % of control | [11] 96 % of control and 98 % of control | dose: 400.0 mg/kg/injection, schedule: Q01DX009 (ip), vehicle: saline 98 % of control

CCOCCCN
inactive: [20] 103 % of control | [21] 95 % of control | [12] 100 % of control | [13] 106 % of control

O=[N+]([O-])c1ccc(/C=N\Nc2ccccn2)s1
inactive: [17] 93 % of control | [18] 93 % of control

CN(C)c1ccc(C(=O)/C=C/c2ccc([N+](=O)[O-])cc2)cc1
inactive: [4] 87 % of control | [5] 97 % of control | [6] 86 % of control

CC(C)(C)c1cc(C=C2C(=O)c3ccccc3C2=O)cc(C(C)(C)C)c1O
inactive: [15] 87 % of control | [16] 90 % of control | [19] 93 % of control

CCCOP(=O)(OCCC)C(OC(=O)C(C)C)=C(C)C
inactive: [17] 97 % of control | [18] 94 % of control

CCNC(=S)NCCO
inactive: dose: 100.0 mg/kg/injection, schedule: Q04DX003 (ip), vehicle: saline sonified 97 % of control | dose: 200.0 mg/kg/injection, schedule: Q04DX003 (ip), vehicle: saline sonified 90 % of control | dose: 400.0 mg/kg/injection, schedule: Q04DX003 (ip), vehicle: saline sonified 97 % of control
